Test results as given in ChEMBL document CHEMBL4184266, “Bacicyclin, a new antibacterial cyclic hexapeptide from Bacillus sp. strain BC028 isolated from Mytilus edulis” (Bioorg Med Chem Lett, 2018).
≈ marks a conversion by molar mass, not a printed value. One block for each compound: values may come before it. Calls of active or inactive are those of the source. The calls are words filed in the database; no cut-off is given here.

Key:
Enterococcus faecalis = assay: Antibacterial activity against Enterococcus faecalis JH212 assessed as inhibition of bacterial growth incubated for 18 hrs by […]; assay type: functional; conditions: JH212, 18 h
Staphylococcus aureus = assay: Antibacterial activity against Staphylococcus aureus NCTC 8325 assessed as inhibition of bacterial growth incubated for 18 hrs by […]; assay type: functional; conditions: NCTC 8325, 18 h
[1] = Cytotoxicity against mouse J774.1 cells incubated for 24 hrs and measured 48 and 72 hrs post dye addition by Alamar blue dye based assay; assay type: cell-based
Enterococcus faecium = assay: Antibacterial activity against Enterococcus faecium 6413 assessed as inhibition of bacterial growth incubated for 18 hrs by […]; assay type: functional, organism-based
Pseudomonas aeruginosa = assay: Antibacterial activity against Pseudomonas aeruginosa isolate number 3 assessed as inhibition of bacterial growth incubated for 18 hrs by […]; assay type: functional, organism-based
[2] = system: Staphylococcus epidermidis; assay: Antibacterial activity against Staphylococcus epidermidis RP62A assessed as inhibition of bacterial growth incubated for 18 hrs by […]; assay type: functional, organism-based
Escherichia coli = assay: Antibacterial activity against Escherichia coli 536 assessed as inhibition of bacterial growth incubated for 18 hrs by […]; assay type: functional, organism-based

MIC (Enterococcus faecalis): 8 µM (≈ 4.81 µg/mL)
MIC (Staphylococcus aureus): 12 µM (≈ 7.21 µg/mL)
Structure (SMILES): CC[C@H](C)[C@@H]1NC(=O)[C@H](C(C)C)NC(=O)[C@H](CC(C)C)NC(=O)CNC(=O)[C@@H](Cc2ccccc2)NC(=O)[C@@H](C)NC1=O [listing 1 of 2 here]

Structure (SMILES): CC[C@H](C)[C@@H]1NC(=O)[C@H](C(C)C)NC(=O)[C@H](CC(C)C)NC(=O)CNC(=O)[C@@H](Cc2ccccc2)NC(=O)[C@@H](C)NC1=O [listing 2 of 2 here]
CC50 at 24 h [1]: > 200 µM

MIC (Enterococcus faecalis): 5.24 µM (≈ 3.05 µg/mL)
MIC (Staphylococcus aureus): 2.09 µM (≈ 1.22 µg/mL)
Structure (SMILES): CN[C@@H]1[C@H](O[C@H]2[C@H](O[C@H]3[C@H](O)[C@@H](O)[C@H](N=C(N)N)[C@@H](O)[C@@H]3N=C(N)N)O[C@@H](C)[C@]2(O)C=O)O[C@@H](CO)[C@H](O)[C@H]1O [STREPTOMYCIN]

Structure (SMILES): CC[C@H](C)[C@@H]1NC(=O)[C@@H](C)NC(=O)[C@@H](Cc2ccccc2)NC(=O)CNC(=O)[C@H](CC(C)C)NC(=O)[C@H](C(C)C)NC1=O
growth inhibition (GI) (Enterococcus faecium): inactive
growth inhibition (GI) (Pseudomonas aeruginosa): inactive
growth inhibition (GI) [2]: inactive
growth inhibition (GI) (Escherichia coli): inactive
